From patent US20070172912A1, “Method for fluorescently staining tissue” (PENTAX Corporation, priority 2006, published 2007) come the findings set out here.

The series has as its system slices of the large intestines. Kind of series: Degree of permeation of staining solution in slices of large intestines, varying pH. On the set-up: species or system rat. Conditions: 0.1 mg/mL, pH 4.0, 5.0, 6.0, 7.0 and saline. The procedure:
Slices of the large intestines used in Example 4 were observed, and the degree of permeation of a staining solution was observed. Fluorescein sodium was adjusted to 0.1 mg/mL in the same way as in Example 4 by dilution with solutions with pH 4.0, 5.0, 6.0, and 7.0 and a saline. Imaging was performed with a fluorescence microscope (manufactured by ZEISS, LSM510) under imaging conditions including a pinhole diameter of 1.0 and Max, and 20× and 40× lenses were used.

`O=C1OC2(c3ccc(O)cc3Oc3cc(O)ccc32)c2ccccc21` [F—Na, fluorescein sodium]: the “difference in the degree of permeation into the tissues between staining solutions with varying pH” value was “no significant difference”.
